Series [1] is described as follows: Stability of compound in drinking water. Type of series: physicochemical. The following applies: drinking water pH=7-7.4, room temperature, 20-30 days. The source says:
Previously, the inventors developed series of derivatives of the tetrazole, thiazole, and 1,2,3-triazole families that were thought to be reversible inhibitors of the cytochrome c oxidase (CcO) model and characterized as possible moderate inhibitors of mitochondrial respiration (Barile et al. (2012), Proceedings of the National Academy of Sciences of the United States of America, 109:7, pp. 2539-2543). In this research, a triphenyl phosphonium thiazole derivative (referred to herein as HG1a-1) was randomly selected. Overall, no mice died due to oral administration of compound during 18-20 months. […]
The C57BL/6 mice were maintained on a standard purified mouse diet (PicoLab 5053 Rodent Diet 20; Lab Diets) until they reached 2 months of age when the treatments started. […] Body weights were measured weekly at the same time each week. Food and water intake were measured once every month for 3-6 consecutive days at the same time each month. Water consumption was measured for 2 weeks prior to the start of administration. Compound was generated and modified for better permeability in to mitochondria, evaluated by HPLC, was 96%-97%. […] Aliquots were collected from each batch and measured by HPLC to confirm stability of the compound. […] Rectal body temperature was measured monthly, as described previously. Whole blood samples, and histopathology were analyzed after 14 months of treatment. […]

Series [2] in a line: Single IP injection, body temperature and clinical pathology. Type of series: in vivo, C57BL/6 mice. The following applies: Day 4. Here is the method:
Body temperature integration in mouse. Three groups of male C57BL/6 mice received a single injection of the inhibitor at dose-levels of 0 (vehicle=N/S), average μM and max μM and were then kept for an 80 minute observation period until the BT was stabilized. Treatment was performed as a slow injection, IP, under a dosage volume of 0.5 mL/kg.
Rectal temperature was measured using a conventional thermometer in all groups at 0, 10, 15, 20, 30, 40, 50, 60, 70 and 80 minutes and repeated three times in 3 days.

A short description of series [3]: Chronic 10-week treatment of T2DM mice. Type of series: in vivo. As to the method:
Next, in a biased investigation on impact of partial inhibition as a potential anti-diabetic treatment, two groups of type 2 diabetes mellitus (T2DM) and healthy control mice were prepared. Four weeks after the verification of T2DM, diabetic mice began to receive the exemplary subject compound. The chronic treatment phase lasted for 10 weeks.

For series [4], the system named is TNF-α, IL-6, CRP, leptin receptor, CD68 transcripts. Nature of the series: qPCR of inflammatory factors, macrophage pan marker and leptin receptor. It is filed as in vivo, mouse. Here is the method:
Gene expression & RT qPCR Analyses. Total RNA was isolated using a commercially available kit (OMEGA bio-tek, R6812-02) according to the manufacturer's instructions. cDNA was generated using the PrimeScript RT reagent kit (TAKARA, RR047A). Gene expression were determined by qPCR as described in the product manual. The analysis was evaluated by Bio-Rad Real-Time System (CFX Connect™).
RNAs from 10 mice (5 treated and 5 Ctrl.) VF fat or livers were isolated by using omega Bio-Tek reagents, and cDNA was transcribed by (TAKARA). qPCR was then performed by using iQ SYBR Green mastermix bioscience on a CFX96 Real-Time System/C1000 Thermal Cycler (Bio-Rad).
For orientation: In qPCR the cycle at which signal appears reflects the starting amount.

Series [5] is described as follows: Intra-peritoneal glucose tolerance test (IPGTT). It is filed as in vivo, C57BL/6 mice. The text has this: The C57BL/6 mice were maintained on a standard purified mouse diet (PicoLab 5053 Rodent Diet 20; Lab Diets) until they reached 2 months of age when the treatments started. The CR animals were subjected to a lifelong restriction on PicoLab 5053 Rodent Diet 20; Lab Diets, starting at 12 weeks of age, with a daily food allotment of 60% of that eaten by the ad lib animals. Besides CR animals, the C57BL/6 groups in this study were fed the standard high fat diet (HFD; 60 or 40% fat). Body weights were measured weekly at the same time each week. Food and water intake were measured once every month for 3-6 consecutive days at the same time each month. Water consumption was measured for 2 weeks prior to the start of administration. Compound was generated and modified for better permeability in to mitochondria, evaluated by HPLC, was 96%-97%. The administration began at 8 weeks of age and continued for 16 months, until they became 18-month-old. The drug solution was prepared weekly in small batches by dissolving the compound into autoclaved water at the respective doses and filtering sterilely. Aliquots were collected from each batch and measured by HPLC to confirm stability of the compound. Water bottles and cages were changed twice weekly. […] Rectal body temperature was measured monthly, as described previously. Whole blood samples, and histopathology were analyzed after 14 months of treatment. […]

The mark [6] stands for this setting: visceral fat, 14 months old mice.

Regarding `Cc1ncsc1CCOC(=O)C[P+](c1ccccc1)(c1ccccc1)c1ccccc1.[Br-]` [HG1a-1, (2-(2-(4-Methylthiazol-5-yl)Ethoxy)-2-Oxoethyl) Triphenylphosphonium Bromide], the “compound maintained intact in drinking water” value in series [1] is given as 95%-99. Further, the “clinical pathology (physicals) 24 h after treatment” value in series [2] was “within the normal baseline range”. In series [3] (after one week (23 mM at time 0)), the “drop of blood glucose level” value stood at 20%. The “drop of blood glucose level” value in series [3] (by week 3, reached healthy controls) is 39%. Moreover, the insulin elevations entry in series [3] (week 3) is recorded as “negligible”. Moreover, the “leptin receptor transcript abundance increase” value in series [4] (mouse livers) is on record as 2 fold. Also, in series [4] (visceral fat), the “decline in abundance of CD68” value is recorded as 5 fold. For the same compound, in series [4] (setting [6]), the CRP transcript entry is on record as “trivial changes”, the IL-6 transcript result is reported as “declined markedly” and the TNF-α transcript result is “declined markedly”. In series [5] (after 6 months), the “glucose tolerance (IPGTT)” value was “normal glucose tolerance”. The “glucose tolerance (IPGTT)” value in series [5] (young ages of 8 weeks and 12 weeks) is recorded as “mildly glucose-intolerant”.

The values above are taken from US20220281902A1, “MIT[…] IMPROVE METABOLIC SYNDROME DURING AGING” (The Board of Trustees of the Leland Stanford Junior …, priority 2019, published 2022).
